Drawing on US12077503B2, “Substituted cyclic amides and their use as herbicides” (FMC CORPORATION, priority 2015, dated 2024), this text covers pest or weed control for 13 molecules.

Experiment in all cases: Test A preemergence
Holding throughout (format): in vivo

Experiment [1] deals with ragweed (common ragweed, Ambrosia elatior). Particulars: Ambrosia artemisiifolia, pre-emergence, 240 h; for pest or weed control at 125 g/ha: 125 g ai/ha, preemergence, 0 to 100 scale where 0 is no effect and 100 is complete control, read-out: Ragweed plant response rating; for pest or weed control at 500 g/ha: 500 g ai/ha, Preemergence, visual injury vs untreated controls after approximately 10 d, read-out: Ragweed plant response rating (0 to 100 scale where 0 is no effect and 100 is complete control). In a few lines: (§1)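 In a loam soil and sand blend, planted seeds got a preemergence directed soil spray, and young plants at the one- to two-leaf stage, 2–10 cm high, got a postemergence application; ~10 d greenhouse hold; injury rated visually, 0 = none, 100 = complete control.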

Experiment [2] has as its system giant foxtail (Setaria faberii). Particulars: Setaria faberi, pre-emergence, 240 h; for pest or weed control at 125 g/ha: 125 g ai/ha, preemergence, 0 to 100 scale where 0 is no effect and 100 is complete control, read-out: Foxtail, Giant plant response rating; for pest or weed control at 500 g/ha: 500 g ai/ha, Preemergence, visual injury vs untreated controls after approximately 10 d, read-out: Foxtail, Giant plant response rating (0 to 100 scale where 0 is no effect and 100 is complete control). In a few lines:
as §1

The test system of experiment [3] is barnyardgrass (Echinochloa crus-galli). Particulars: Echinochloa crus-galli, pre-emergence, 240 h; for pest or weed control at 125 g/ha: 125 g ai/ha, preemergence, 0 to 100 scale where 0 is no effect and 100 is complete control, read-out: Barnyardgrass plant response rating; for pest or weed control at 500 g/ha: 500 g ai/ha, Preemergence, visual injury vs untreated controls after approximately 10 d, read-out: Barnyardgrass plant response rating (0 to 100 scale where 0 is no effect and 100 is complete control). In short, it runs like this:
as §1

The subject of experiment [4] is Kochia (Kochia scoparia). To be noted: Bassia scoparia, pre-emergence, 240 h; for pest or weed control at 125 g/ha: 125 g ai/ha, preemergence, 0 to 100 scale where 0 is no effect and 100 is complete control, read-out: Kochia plant response rating; for pest or weed control at 500 g/ha: 500 g ai/ha, Preemergence, visual injury vs untreated controls after approximately 10 d, read-out: Kochia plant response rating (0 to 100 scale where 0 is no effect and 100 is complete control). In a few lines:
as §1

Experiment [5] concerns pigweed (Amaranthus retroflexus). Particulars: Amaranthus retroflexus, pre-emergence, 240 h; for pest or weed control at 125 g/ha: 125 g ai/ha, preemergence, 0 to 100 scale where 0 is no effect and 100 is complete control, read-out: Pigweed plant response rating; for pest or weed control at 500 g/ha: 500 g ai/ha, Preemergence, visual injury vs untreated controls after approximately 10 d, read-out: Pigweed plant response rating (0 to 100 scale where 0 is no effect and 100 is complete control).

In the case of `CN1C[C@H](c2cccc(F)c2)[C@@H](C(=O)Nc2ccccc2S(C)(=O)=O)C1=O` [Compound 824], the pest or weed control at 125 g/ha was 20% in experiment [1]; 90% in experiment [2]; 90% in experiment [3]; 60% in experiment [4]; 0% in experiment [5]. For the same molecule, the pest or weed control at 500 g/ha in experiment [1] amounted to 50%; in experiment [2], 100%; in experiment [3], 100%; in experiment [4] it was 70%; in experiment [5], 40%.

`O=C1NC[C@H](c2cccc(C(F)(F)F)c2)[C@H]1C(=O)Nc1cccc2c1OC(F)(F)O2` [Compound 827]: the pest or weed control at 125 g/ha was found to be 0% in experiment [1]; 90% in experiment [2]; 90% in experiment [3]; 30% in experiment [4]; 20% in experiment [5]. Moreover, the pest or weed control at 500 g/ha in experiment [1] came out at 20%; in experiment [2] it was 90%; in experiment [3], 90%; in experiment [4], 60%; in experiment [5], 40%.

Regarding `Cc1c(F)ccc([C@H]2CNC(=O)[C@@H]2C(=O)Nc2ccc(F)c(F)c2F)c1F` [Compound 830], the pest or weed control at 125 g/ha in experiment [1] is 0%; in experiment [2] it was 90%; in experiment [3], 90%; in experiment [4], 70%; in experiment [5] it was 20%. The pest or weed control at 500 g/ha in experiment [1] came to 20%; in experiment [2], 90%; in experiment [3], 90%; in experiment [4], 90%; in experiment [5], 40%.

On to `Cc1c(F)ccc([C@H]2CNC(=O)[C@@H]2C(=O)Nc2ccccc2C(F)(F)F)c1F` [Compound 831], for which the pest or weed control at 125 g/ha is 0% in experiment [1]; 90% in experiment [2]; 50% in experiment [3]; 0% in experiment [4]; 20% in experiment [5]. The pest or weed control at 500 g/ha was determined as 0% in experiment [1]; 90% in experiment [2]; 70% in experiment [3]; 0% in experiment [4]; 20% in experiment [5].

As for `Cc1c(F)ccc([C@H]2CNC(=O)[C@@H]2C(=O)Nc2ccccc2S(C)(=O)=O)c1F` [Compound 832], the pest or weed control at 125 g/ha in experiment [1] worked out at 40%; in experiment [2], 0%; in experiment [3], 40%; in experiment [4], 90%; in experiment [5], 0%. Further, the pest or weed control at 500 g/ha worked out at 60% in experiment [1]; 80% in experiment [2]; 80% in experiment [3]; 100% in experiment [4]; 30% in experiment [5].

For the molecule `Cc1c(F)ccc([C@H]2CN(C)C(=O)[C@@H]2C(=O)Nc2cccc(F)c2F)c1F` [Compound 834], the pest or weed control at 125 g/ha came to 0% in experiment [1]; 90% in experiment [2]; 90% in experiment [3]; 80% in experiment [4]; 0% in experiment [5]. In addition, the pest or weed control at 500 g/ha was found to be 20% in experiment [1]; 100% in experiment [2]; 90% in experiment [3]; 90% in experiment [4]; 30% in experiment [5].

With `Cc1c(F)ccc([C@H]2CN(C)C(=O)[C@@H]2C(=O)Nc2ccc(F)cc2F)c1F` [Compound 835], the pest or weed control at 125 g/ha is 0% in experiment [1]; 90% in experiment [2]; 90% in experiment [3]; 80% in experiment [4]; 20% in experiment [5]. For the same molecule, the pest or weed control at 500 g/ha in experiment [1] was 0%; in experiment [2] it was 100%; in experiment [3], 100%; in experiment [4], 90%; in experiment [5], 40%.

Regarding `O=C1NC[C@H](c2cc(F)c(C(F)(F)F)c(F)c2)[C@H]1C(=O)Nc1ccccc1F` [Compound 837], the pest or weed control at 125 g/ha worked out at 70% in experiment [1]; 90% in experiment [2]; 90% in experiment [3]; 90% in experiment [4]; 20% in experiment [5]. Also, the pest or weed control at 500 g/ha in experiment [1] is 70%; in experiment [2], 90%; in experiment [3], 90%; in experiment [4], 90%; in experiment [5], 80%.

As to `O=C1NC[C@H](c2cc(F)c(C(F)(F)F)c(F)c2)[C@H]1C(=O)Nc1cccc(F)c1F` [Compound 838], the pest or weed control at 125 g/ha in experiment [1] stood at 40%; in experiment [2], 90%; in experiment [3] it was 90%; in experiment [4] it was 70%; in experiment [5] it was 80%. Besides, the pest or weed control at 500 g/ha in experiment [1] came out at 60%; in experiment [2], 90%; in experiment [3] it was 90%; in experiment [4], 80%; in experiment [5] it was 90%.

With `CSc1ccccc1NC(=O)[C@H]1C(=O)N(C)C[C@@H]1c1cc(C)cc(F)c1` [Compound 851], the pest or weed control at 125 g/ha in experiment [1] is 0%; in experiment [2] it was 90%; in experiment [3], 90%; in experiment [4], 20%; in experiment [5], 60%. The pest or weed control at 500 g/ha in experiment [1] was 30%; in experiment [2], 90%; in experiment [3], 90%; in experiment [4] it was 70%; in experiment [5], 90%.

In the case of `COc1cc([C@H]2CN(C)C(=O)[C@@H]2C(=O)Nc2ccccc2F)cc(C(F)(F)F)c1` [Compound 855], the pest or weed control at 125 g/ha in experiment [1] is 0%; in experiment [2], 90%; in experiment [3], 90%; in experiment [4] it was 20%; in experiment [5], 30%. Further, the pest or weed control at 500 g/ha in experiment [1] worked out at 0%; in experiment [2], 90%; in experiment [3] it was 100%; in experiment [4], 30%.

Consider `CN1C[C@H](c2cccc(OC(F)(F)C(F)F)c2)[C@@H](C(=O)Nc2ccccc2S(C)(=O)=O)C1=O` [Compound 864], for which the pest or weed control at 125 g/ha in experiment [1] is 20%; in experiment [2] it was 90%; in experiment [3], 90%; in experiment [4], 60%; in experiment [5] it was 90%. Further, the pest or weed control at 500 g/ha in experiment [1] turned out to be 50%; in experiment [2], 90%; in experiment [3] it was 90%; in experiment [4] it was 80%; in experiment [5], 90%.

`CN1C[C@H](c2cc(F)cc(F)c2)[C@@H](C(=O)Nc2ccc(C(F)(F)F)cn2)C1=O` [Compound 869]: the pest or weed control at 125 g/ha was determined as 0% in experiment [1]; 90% in experiment [2]; 60% in experiment [3]; 0% in experiment [4]; 0% in experiment [5]. Besides, the pest or weed control at 500 g/ha stood at 0% in experiment [1]; 90% in experiment [2]; 90% in experiment [3]; 0% in experiment [4]; 0% in experiment [5].
